Legend:
[1] = test system: benzothiazepine bonding site of the L-type calcium channel; experiment: Bonding investigations on the L calcium channel, benzothiazepine bonding site (diltiazem bonding); type: binding; conditions: rat cerebrocortex membranes; for Diltiazem bonding at 10 μM: percentage inhibition at 10 μM test substance, [3H]-cis-(+)-diltiazem 5 nM
Description: Benzothiazepine Bonding Site (diltiazem bonding)
The biological membrane material was isolated from the cerebrocortex of the rat. [^3H]-cis-(+)-Diltiazem (5 nM in the batch) was used as the ligand. Incubation for 20 minutes at 25° C. The radioactivity measured in the presence of (+)-diltiazem (10^−6 M in the batch) is defined as non-specific bonding. At the end of the incubation, the non-bonded content of radioactive ligand is removed with the aid of a filtration process over Whatman glass fiber GF/B membranes. After a washing process, the membranes are then measured on a β-counter. The method has been established in accordance with the publication of Schoemaker and Langer (H. Schoemaker and S. Z. Langer (1985) Eur. J. Pharmacol. 111, 273-277).
(§1) In addition to the percentage inhibition of the test systems at fixed test substance concentrations (10 μM in the batch), dose-dependencies were investigated. In this investigation, IC50 values are obtained, and these can be converted by the “Cheng-Prusoff equation” (Y. C. Cheng and W. H. Prusoff (1973) Biochem. Pharmacol. 22, 3099-3108) into inhibitor constants (Ki). The IC50 values were obtained with the aid of the “Figure P” computer program (version 6.0, Biosoft, Cambridge, England). Km values were calculated by the method of Lineweaver and Burk (H. Lineweaver and D. Burk (1934) J. Am. Chem. Soc. 56, 658-666). The “Ligand” computer program (version 4, Biosoft, England) is used to obtain KD values.

[2] = test system: bonding site 2 of the sodium channel (BTX bonding site); experiment: Bonding investigations on the sodium channel, bonding site 2 (BTX bonding); type: binding; conditions: rat cerebrocortex synaptosomes; for BTX bonding at 10 μM: percentage inhibition at 10 μM test substance, [3H]-batrachotoxin A20 α-benzoate 10 nM
Description: Bonding Site 2 (BTX bonding)
Bonding site 2 of the sodium channel is the so-called batrachotoxin (BTX) bonding site. [^3H]-Batrachotoxin A20 α-benzoate (10 nM in the batch) was employed as the ligand. These ion channel particles (synaptosomes) were concentrated out of the rat cerebrocortex by the method of Gray and Whittaker (E. G. Gray and V. P. Whittaker (1962) J. Anat. 76, 79-88). The radioactivity measured in the presence of veratridin (0.3 mM in the batch) is defined as non-specific bonding. Incubation at 37° C. for 120 min. The assay conditions were implemented in accordance with the publication of Pauwels, Leysen and Laduron (P. J. Pauwels, J. E. Leysen and P. M. Laduron (1986) Eur. J. Pharmacol. 124, 291-298).
as §1

[3] = test system: phenylquinone-induced writhing; experiment: Phenylquinone-induced writhing test on mice; type: in vivo; conditions: male NMRI mice, 10 min before phenylquinone i.p., writhing counted 5 to 20 min after phenylquinone
Description: The analgesic activity was investigated on phenylquinone-induced writhing in mice (modified by I. C. Hendershot and J. Forsaith (1959) J. Pharmacol. Exp. Ther. 125, 237-240). Male NMRI mice weighing 25 to 30 g were used for this. Groups of 10 animals per dose of substance received 0.3 ml/mouse of a 0.02% aqueous solution of phenylquinone (phenylbenzoquinone), Sigma, Deisenhofen; preparation of the solution with addition of 5% ethanol and storage in a water bath at 45° C.) as an intraperitoneal administration 10 minutes after intravenous administration of the test substances. The animals were placed individually in observation cages. The number of pain-induced extension movements (so-called writhing reactions=straightening of the body with stretching out of the hind extremities) 5 to 20 minutes after the administration of phenylquinone was counted by means of a push-button counter. Animals which receive only physiological saline solution were also run as a control. All the substances were tested in the standard dosage of 10 mg/kg. The percentage inhibition (% inhibition) of the writhing reaction by a substance was calculated in accordance with the following equation: [formula] For some substances, the ED50 values with 95% confidence limits of the writhing reaction were calculated from the dose-dependent decrease in the writhing reactions compared with phenylquinone control groups investigated in parallel by means of regression analysis (evaluation program of Martens EDV Service, Eckental).

| Compound | Diltiazem bonding at 10 μM [1] [%] | BTX bonding at 10 μM [2] [%] | % Inhibition of the writhing reaction at 10 mg/kg intravenously [3] [%] | Kd ([2]; radioligand, means±SEM, N=3, read-out: KD value for this bonding site) [µM] | Kd ([1]; radioligand, means±SEM, N=3, read-out: KD value for this high-affinity bonding site) [µM] |
| --- | --- | --- | --- | --- | --- |
| Cc1ccccc1COC1CCCCC1C(c1ccccc1)N(C)C.Cl (stereo not shown) [Example 1, Dimethyl-{[2-(2-methyl-benzyloxy)cyclohexyl]phenylmethyl}-amine hydrochloride] | 82 | 99 | 85 |  |  |
| CN(C)C(c1ccccc1)C1CCCCC1OC(=O)c1ccc(C(F)(F)F)cc1.Cl (stereo not shown) [Example 2, [2-(Dimethylaminophenylmethyl)cyclohexyl]-4-trifluoromethylbenzoate hydrochloride] |  | 98 | 48 |  |  |
| COc1ccc(C(=O)OC2CCCCC2C(c2ccccc2)N(C)C)cc1.Cl (stereo not shown) [Example 3, [2-(Dimethylaminophenylmethyl)cyclohexyl]4-methoxybenzoate hydrochloride] | 65 | 89 | 43 |  |  |
| CN(C)C(c1ccccc1Cl)C1CCCCC1OCc1ccccc1Cl.Cl (stereo not shown) [Example 4, {[2-(2-Chlorobenzyloxy)cyclohexyl]-(2-chlorophenyl)methyl}-dimethylamine hydrochloride] | 73 | 92 | 32 |  |  |
| CN(C)C(c1ccccc1)C1CCCCC1OCc1cccc(F)c1.Cl (stereo not shown) [Example 5, {[2-(3-Fluorobenzyloxy)cyclohexyl]-phenylmethyl}dimethylamine hydrochloride] | 89 | 98 | 74 |  |  |
| CN(C)C(c1ccccc1)C1CCCCC1OCc1ccc(F)cc1.Cl (stereo not shown) [Example 6, {[2-(4-Fluorobenzyloxy)cyclohexyl]-phenylmethyl}dimethylamine hydrochloride] | 86 | 97 | 68 |  |  |
| [^3H]-Batrachotoxin A20 α-benzoate [reference compound] |  |  |  | 0.0246 ± 0.00156 |  |
| [^3H]-cis-(+)-Diltiazem [reference compound] |  |  |  |  | 0.0041 ± 0.00075 |

From patent USRE39530E1, “3-amino-3-arylpropan-1-ol-compounds, their preparation and use” (Gruenenthal GmbH, priority 1999, dated 2007)
